# Biological target: T1, Human Aryl Hydrocarbon Receptor (AhR) (Homo sapiens, UniProt P35869)
# T1 construct: purchased INDIGO Bioscience IB06001-32; host or cells: AhR Reporter Cell (the kit's proprietary reporter cells)
# T1 sequence (P35869 11-848): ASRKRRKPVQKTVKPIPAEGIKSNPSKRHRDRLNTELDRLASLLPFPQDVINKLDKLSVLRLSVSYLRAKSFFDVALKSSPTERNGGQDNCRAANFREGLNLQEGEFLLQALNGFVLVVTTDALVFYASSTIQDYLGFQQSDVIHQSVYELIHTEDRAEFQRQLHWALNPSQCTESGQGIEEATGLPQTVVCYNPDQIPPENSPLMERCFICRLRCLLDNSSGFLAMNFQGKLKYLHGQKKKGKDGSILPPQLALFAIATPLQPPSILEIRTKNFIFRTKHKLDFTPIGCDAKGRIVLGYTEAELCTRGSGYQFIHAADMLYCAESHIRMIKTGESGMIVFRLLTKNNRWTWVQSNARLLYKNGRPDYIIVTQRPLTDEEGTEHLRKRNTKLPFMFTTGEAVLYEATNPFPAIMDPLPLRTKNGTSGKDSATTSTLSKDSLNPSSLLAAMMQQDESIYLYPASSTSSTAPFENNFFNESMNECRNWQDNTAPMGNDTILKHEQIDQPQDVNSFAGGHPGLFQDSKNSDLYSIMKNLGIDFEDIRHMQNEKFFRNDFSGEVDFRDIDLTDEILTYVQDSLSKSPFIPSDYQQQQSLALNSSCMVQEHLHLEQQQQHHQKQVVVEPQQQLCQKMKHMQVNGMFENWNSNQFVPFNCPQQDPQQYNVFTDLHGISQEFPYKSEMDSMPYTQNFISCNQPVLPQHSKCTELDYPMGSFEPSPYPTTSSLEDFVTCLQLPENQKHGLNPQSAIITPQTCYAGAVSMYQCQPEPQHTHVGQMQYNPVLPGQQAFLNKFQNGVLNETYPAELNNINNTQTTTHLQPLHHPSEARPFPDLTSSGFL
# Assay: AhR reporter assay (Human Aryl Hydrocarbon Receptor (AhR) Reporter Assay System, INDIGO Bioscience)
# Format: cell-based
# Conditions: AHR inhibition at 10 nM test compound; AhR Reporter Cells activated with 200 μM kynurenic acid, 24 hours; firefly luciferase; normalized by positive and negative controls
# Method: The AhR reporter assay was performed following the protocol of the Human Aryl Hydrocarbon Receptor (AhR) Reporter Assay System (INDIGO Bioscience, #IB06001-32). AhR Reporter Cell was thawed and pre-incubated in Cell Recovery Medium (CRM) for 6 hours. The media was then removed and the cells were incubated with Compound Screening Medium (CSM) supplemented with 200 μM kynurenic acid for 24 hours in the absence (negative control) or presence of 10 nM test compounds. For positive inhibition control, cells activated with 200 μM kynurenic acid were incubated in the presence of literature AHR antagonists; alternatively un-activated cells were used as positive inhibition control. Following 24 hours incubation, the media was removed and Luciferase Detection Reagent (LDR) added. The firefly luciferase activity was quantified using a plate reader. Results were normalized by positive and negative controls.
# The results of AHR inhibition at 10 nM for compounds as disclosed herein is reported in the below table.
row,inhibition at 0.01 µM,Structure (SMILES)
1,90%,C[C@@H](CO)n1cnc2c(-c3cnn(C)c3)nc(-c3ccc(-c4ccc(Cl)cc4)nc3)cc2c1=O [Compound 7]
2,62%,C[C@@H](CO)NC(=O)c1cc(-c2ccc(-c3ccc(F)cc3)nc2)nc(-c2cnn(C)c2)n1 [Compound 61]
3,24%,C[C@@H](CO)n1cnc2c(-c3cnn(C)c3)nc(-c3cnc(N4CCOCC4)nc3)cc2c1=O [Compound 26]
4,46%,C[C@@H](CO)n1cnc2c(-c3cnn(C)c3)nc(N3CCN(c4ccc(F)cc4F)CC3)cc2c1=O [Compound 122]
5,10%,C[C@@H](CO)NC(=O)c1cc(-c2ccc(-c3ccc(=O)n(C)c3)cc2)nc(-c2cnn(C)c2)n1 [Compound 112]
6,45%,CC1COCCN1c1ccc(-c2cc3c(=O)n([C@@H](C)CO)cnc3c(-c3cnn(C)c3)n2)cn1 (stereo partly shown) [Compound 27]
7,39%,C[C@@H](CO)n1cnc2c(-c3cnn(C)c3)nc(-c3ccc(-c4cncc(F)c4)nc3)cc2c1=O [Compound 41]
8,99%,C[C@@H](CO)n1cnc2c(-c3cnn(C)c3)nc(N3Cc4ccccc4C3)cc2c1=O [Compound 15]
9,8%,C[C@@H](CO)n1cnc2c(-c3cnn(C)c3)nc(-c3ccc(N4CCOCC4)nc3)cc2c1=O [Compound 25]
10,16%,C[C@@H](CO)n1cnc2c(-c3cnn(C)c3)nc(-c3ccc(NC(=O)CN4CCOCC4)cc3)cc2c1=O [Compound 42]
11,6%,C[C@@H](CO)n1cnc2c(-c3cnn(C)c3)nc(-c3ccc(C(=O)N4CCC(N)C4)cc3)cc2c1=O (stereo partly shown) [Compound 34]
12,91%,C[C@@H](CO)n1cnc2c(-c3cnn(C)c3)nc(N3CCN(c4ccccc4)CC3)cc2c1=O [Compound 123]
13,37%,C[C@@H](CO)NC(=O)c1cc(-c2ccc(C3CCOCC3)cc2)nc(-c2cnn(C)c2)n1 [Compound 71]
14,66%,C[C@@H](CO)n1cnc2c(-c3cnn(C)c3)nc(-c3ccc(N4CCOCC4)cc3)cc2c1=O [Compound 3]
15,13%,C[C@@H](CO)NC(=O)c1cc(N2CCN(c3ccc(F)cc3)[C@@H](C)C2)nc(-c2cnn(C)c2)n1 [Compound 72]
16,4%,C[C@@H](CO)NC(=O)c1cc(N2CCN(c3ccc(F)cc3)C[C@@H]2C)nc(-c2cnn(C)c2)n1 [Compound 77]
17,62%,C[C@@H](CO)NC(=O)c1cc(-c2ccc(-c3cccc(F)c3)nc2)nc(-c2cnn(C)c2)n1 [Compound 68]
18,8%,C[C@@H](CO)n1cnc2c(-c3cnn(C)c3)nc(-c3ccc(C(=O)N4CCC(O)C4)cc3)cc2c1=O (stereo partly shown) [Compound 29]
19,46%,C[C@@H](CO)NC(=O)c1cc(N2Cc3cccnc3C2)nc(-c2cnn(C)c2)n1 [Compound 117]
20,5%,C[C@H](NC(=O)c1cc(N2Cc3ccccc3C2)nc(-c2cnn(C)c2)n1)C(=O)O [Compound 126]
21,24%,C[C@@H](CO)NC(=O)c1cc(-c2ccc(-c3ccccc3F)nc2)nc(-c2cnn(C)c2)n1 [Compound 59]
22,21%,C[C@@H](CO)NC(=O)c1cc(N2CCN(c3ccc(F)cc3)CC2)nc(-c2cnn(C)c2)n1 [Compound 60]
23,60%,C[C@@H](CO)NC(=O)c1cc(-c2ccc(-c3ccc(F)nc3)nc2)nc(-c2cnn(C)c2)n1 [Compound 69]
24,5%,C[C@@H](CO)n1cnc2c(-c3cnn(C)c3)nc(-c3ccc(C(=O)N4CCC(O)CC4)cc3)cc2c1=O [Compound 35]
25,23%,C[C@H](CO)NC(=O)c1cc(N2Cc3ccccc3C2)nc(-c2cnn(C)c2)n1 [Compound 125]
26,7%,C[C@@H](CO)NC(=O)c1cc(-c2ccc(N3CCN(S(C)(=O)=O)CC3)cc2)nc(-c2cnn(C)c2)n1 [Compound 91]
27,49%,C[C@@H](CO)NC(=O)c1cc(N2Cc3ccccc3C2=O)nc(-c2cnn(C)c2)n1 [Compound 64]
28,96%,C[C@@H](CO)n1cnc2c(-c3cnn(C)c3)nc(-c3ccc(-c4ccc(F)cc4)nc3)cc2c1=O [Compound 6]
29,33%,Cc1nn(C)c2cc(-c3cc(C(=O)N[C@@H](C)CO)nc(-c4cnn(C)c4)n3)ccc12 [Compound 67]

# The remaining lines, values behind:
row,Structure (SMILES),inhibition at 0.01 µM
1,C[C@@H](CO)n1cnc2c(-c3cnn(C)c3)nc(N3CC=C(c4ccc(F)cc4)CC3)cc2c1=O [Compound 16],82%
2,C[C@@H](CO)n1cnc2c(-c3cnn(C)c3)nc(-c3ccc(C4=CCOCC4)nc3)cc2c1=O [Compound 9],29%
3,C[C@@H](CO)n1cnc2c(-c3cnn(C)c3)nc(N3Cc4cccc(F)c4C3)cc2c1=O [Compound 52],35%
4,C[C@@H](CO)n1cnc2c(-c3cnn(C)c3)nc(N3Cc4ccc(F)cc4C3)cc2c1=O [Compound 56],99%
5,C[C@@H](CO)n1cnc2c(-c3cnn(C)c3)nc(-c3ccc(C4CCOCC4)cc3)cc2c1=O [Compound 5],40%
6,C[C@@H](CO)NC(=O)c1cc(N2Cc3ccccc3C2)nc(-c2cnn(C)c2)n1 [Compound 63],58%
7,C[C@@H](CO)NC(=O)c1cc(N2CCN(C(=O)c3ccc(F)cc3)CC2)nc(-c2cnn(C)c2)n1 [Compound 75],24%
8,C[C@@H](CO)n1cnc2c(-c3cnn(C)c3)nc(-c3ccc(C(=O)N4CCCNCC4)cc3)cc2c1=O [Compound 28],-5%
9,C[C@@H](CO)n1cnc2c(-c3cnn(C)c3)nc(-c3ccc(C(=O)N4CCC(N)CC4)cc3)cc2c1=O [Compound 30],-5%
10,C[C@@H](CO)n1cnc2c(-c3cnn(C)c3)nc(N3CCN(c4ncccn4)CC3)cc2c1=O [Compound 121],4%
11,C[C@@H](CO)n1cnc2c(-c3cnn(C)c3)nc(/C=C/c3ccc(F)cc3)cc2c1=O [Compound 20],70%
12,C[C@@H](CO)n1cnc2c(-n3nc(N)ccc3=O)nc(-c3cncc(F)c3)cc2c1=O [Compound 128],4%
13,C[C@@H](CO)n1cnc2c(-c3cnn(C)c3)nc(-c3ccc(C(=O)N4CCN(S(C)(=O)=O)CC4)cc3)cc2c1=O [Compound 120],-10%
14,C[C@@H](CNS(=O)(=O)C1CC1)NC(=O)c1cc(N2Cc3ccccc3C2)nc(-c2cnn(C)c2)n1 [Compound 127],52%
15,C[C@@H](CO)NC(=O)c1cc(-c2ccc(N3CCOCC3)cc2)nc(-c2cnn(C)c2)n1 [Compound 62],29%
16,C[C@@H](CO)NC(=O)c1cc(-c2ccc(NC(=O)CN3CCOCC3)cc2)nc(-c2cnn(C)c2)n1 [Compound 98],5%
17,C[C@@H](CO)n1cnc2c(-c3cnn(C)c3)nc(-c3ccc(C(=O)N4CCOCC4)cc3)cc2c1=O [Compound 21],-0.3%
18,C[C@@H](CO)n1cnc2c(-c3cnn(C)c3)nc(-c3ccc(-c4ccc(F)nc4)nc3)cc2c1=O [Compound 8],83%
19,C[C@@H](CO)NC(=O)c1cc(-c2ccc(N3CCOCC3)nc2)nc(-c2cnn(C)c2)n1 [Compound 90],1%
20,Cc1cc(-c2cc3c(=O)n([C@@H](C)CO)cnc3c(-c3cnn(C)c3)n2)ccc1N1CCOCC1 [Compound 57],29%
21,C[C@@H](CO)n1cnc2c(-c3cnn(C)c3)nc(-c3ccc(C(=O)N4CCNCC4)cc3)cc2c1=O [Compound 32],-16%
22,C[C@@H](CO)NC(=O)c1cc(N2CCN(c3ccc(F)cc3)CC2)nc(-c2cnn(C(F)(F)F)c2)n1 [Compound 65],7%
23,C[C@@H]1CN(c2cc(C(=O)N[C@@H](C)CO)nc(-c3cnn(C)c3)n2)CCN1c1ccc(F)cc1 [Compound 73],23%
24,C[C@@H](CO)n1cnc2c(-c3cnn(C)c3)nc(-c3ccc(NC(=O)CN4CCOCC4)nc3)cc2c1=O [Compound 39],-4%
25,C[C@@H](CO)n1cnc2c(-c3cnn(C)c3)nc(-c3ccc(-c4cnc(N)nc4)nc3)cc2c1=O [Compound 119],2%
26,C[C@@H](CO)NC(=O)c1cc(N2Cc3ccc(F)cc3C2)nc(-c2cnn(C)c2)n1 [Compound 93],99%

# — patent US20260272944A1, “PYRIDO[3,4-D]PYRIMIDINONE AND PYRIMDLLNE ARYL HYDROCARBON RECEPTOR ANTAGONISTS AND USES THEREOF” (ALLIANTHERA (SUZHOU) BIOPHARMACEUTICAL CO., LTD., priority 2023, published 2026)
